Laboratory results from patent US20140039044A1, “Hydroxylated Polymethoxyflavone Compositions” (WLLGEN, INC., priority 2006, published 2014).

Tests used:
Assay type in all cases: cell-based, human
[1] = system: HL-60 cells; experiment: Cell survival assay (antiproliferative IC50); details: HL-60 cells; read-out: Antiproliferative IC50
Method: (§1) Human colon carcinoma COLO205 and HT-29 cell lines (American Type Culture Collection (ATTC), Manassas, Va.) and the leukemia cell line HL-60 were maintained at 37° C. in 5% CO2 air in RPMI 1640 medium supplemented with 10% heat-inactivated fetal bovine serum (Gibco BRL, Grand Island, N.Y.), 100 units/mL penicillin, 100 μg/mL streptomycin and 2 mM 1-glutamine. The human gastric carcinoma AGS cell line (CCRC 60102), obtained from the Food Industry Research and Development Institute (Hsinchu, Taiwan), was maintained as described above, except that DMEM/F 12 was used as the medium rather than the RPMI 1640 medium. The human breast carcinoma MCF-7 cell line MCF-7 (ATTC) was cultured in RPMI 1640 medium supplemented with 5% fetal calf serum at 37° C. in a humidified atmosphere of 5% CO2 in air. The mouse macrophage cell line RAW 264.7 was maintained in RPMI 1640 supplemented with 100 U/ml penicillin, 100 μg/ml streptomycin, and 10% heat-inactivated fetal calf serum.
(§2) Cancer cells (2×10^5) were plated in 12-well Petri dishes. The next day, the medium was changed and treated with different concentration of the test compounds or compositions for 24 h. Where individual compounds were to be tested, stock solutions of the compound was prepared to contain 200 μM of the individual hydroxylated or non-hydroxylated PMF in dimethylsulfoxide (DMSO). Control cells were treated with DMSO to a final concentration of 0.05% (v/v). Depending on the objective of the particular experiment, cells were treating with test compound or composition for 1, 3 or 6 days. At the end of incubation, cells were harvested for cell count using a hemocytometer and measuring the cellular total nucleic acid content with the CyQUANT Cell Proliferation Assay Kit (Molecular Probes).
(§3) 1 N PMF and 6 N PMF compositions containing hydroxylated PMFs, prepared as described in Section 8.3 above, 70% PMF OPE and 5,6,7,8,3′,4′-hexamethoxyflavone (nobiletin) were tested for antiproliferative activity and apoptosis-inducing activity in HL-60, AGS and COLO205 cells as described in Section 8.4 above. Antiproliferative and apoptosis-inducing activities were derived as IC50 values and AC50, values, respectively, where AC50 is the concentration required for 50% apoptosis.
(§4) The PMF compounds were assayed in vitro for cell growth inhibition and for their ability to induce apoptosis in various human cancer cells, including HL-60, AGS, COLO 205, and HT-29 cells, using methods described in Section 8.4 above. Antiproliferative (IC50) and apoptosis-inducing activity (AC50) of PMFs in the HL-60, AGS, COLO 205, and HT-29 cells are reported in Table 9, where *P<0.05, **P<0.01 and ***P<0.001 indicate statistically significant differences from the control group.

[2] = system: COLO205 cells; experiment: Cell survival assay (antiproliferative IC50); details: COLO205 cells; read-out: Antiproliferative IC50
Method: as §1, §2, §3, §4

[3] = system: AGS cells; experiment: Cell survival assay (antiproliferative IC50); details: AGS cells; read-out: Antiproliferative IC50
Method: as §1, §2, §3, §4

[4] = system: COLO205 cells; experiment: Cell cycle distribution by flow cytometry; details: COLO205 cells, 24 h, Table 12
Method: (§5) The human cancer cells (2×10^5) were cultured in 60-mm Petri dishes and incubated for 24 h. After treated with test compounds for 24 h, the cells were then harvested, washed with PBS resuspended in 200 μL of PBS, and fixed in 800 μL of iced 100% ethanol at −20° C. After being left to stand overnight, the cell pellets were collected by centrifugation, resuspended in 1 mL of hypotonic buffer (0.5% Triton X-100 in PBS and 0.5 μg/mL RNase) and incubated at 37° C. for 30 min. Next, 1 mL of propidium iodide solution (50 μg/mL) was added, and the mixture was allowed to stand on ice for 30 min. Fluorescence emitted from the propidium iodide-DNA complex was quantitated after excitation of the fluorescent dye by FACScan cytometry (Becton Dickinson, San Jose, Calif.).
(§6) The effects of the hydrolyzed PMF-enriched compositions, nobiletin and 70% PMF OPE on cell cycle distribution were studied, following the procedures described in Section 8.4. Results for cell cycle distribution in HL-60 cells, COLO205 cells and AGS cells are provided in Table 5, Table 6 and Table 7, respectively. […] In HL-60 cells, G2/M arrest predominated in cells treated with 6N PMF concentrations ≧5 μM and with 1N PMF concentrations ≧25 μM.
(§7) Compounds A-K were evaluated in terms of their effects in arresting cell cycle progression by observing cell cycle phase distribution in cells treated with the compounds. Cells were treated with 5, 10, 25, 50, and 100 μM of one of compound A-K or DMSO (control) for 24 h and subjected to flow cytometric analysis after staining their DNA, as described above.
(§8) Similar cell cycle phase distribution studies were performed in AGS, COLO205, and HT-29 cells in response to individual PMFs, with results reported in Tables 11, 12 and 13, respectively.

[5] = system: AGS cells; experiment: Cell cycle distribution by flow cytometry; details: 24 h, Table 11
Method: as §5, §6, §7, §8

[6] = system: HT-29 cells; experiment: Cell survival assay (antiproliferative IC50)
Method: as §1, §2, §4

COc1ccc(-c2oc3c(OC)c(OC)c(OC)c(OC)c3c(=O)c2O)cc1OC [B, 3-hydroxy-5,6,7,8,3′,4-hexamethoxyflavone]
IC50 [1]: > 100 µM | IC50 [2]: 23.3 ± 1.56 µM | IC50 [3]: 72.3 ± 7.91 µM | Cell Cycle Distribution G0/G1 ([4]; 5 μM): 63.59 ± 0.48 | Cell Cycle Distribution G2/M ([4]; 5 μM): 0.89 ± 0.94 | Cell Cycle Distribution S ([4]; 5 μM): 35.53 ± 0.46 | Cell Cycle Distribution G0/G1 ([4]; 10 μM): 63.12 ± 0.20 | Cell Cycle Distribution G2/M ([4]; 10 μM): 5.63 ± 0.28 | Cell Cycle Distribution S ([4]; 10 μM): 31.25 ± 0.48 | Cell Cycle Distribution G0/G1 ([4]; 25 μM): 64.96 ± 0.99 | Cell Cycle Distribution G2/M ([4]; 25 μM): 0.41 ± 0.31 | Cell Cycle Distribution S ([4]; 25 μM): 34.63 ± 0.68 | Cell Cycle Distribution G0/G1 ([4]; 50 μM): 63.32 ± 0.52 | Cell Cycle Distribution G2/M ([4]; 50 μM): 0.31 ± 0.11 | Cell Cycle Distribution S ([4]; 50 μM): 36.39 ± 0.62 | Cell Cycle Distribution G0/G1 ([4]; 100 μM): 78.51 ± 0.63 | Cell Cycle Distribution G2/M ([4]; 100 μM): 3.99 ± 0.95 | Cell Cycle Distribution S ([4]; 100 μM): 17.51 ± 1.58 | Cell Cycle Distribution G0/G1 ([5]; 5 μM): 47.1 ± 1.27 | Cell Cycle Distribution G2/M ([5]; 5 μM): 5.6 ± 0.28 | Cell Cycle Distribution S ([5]; 5 μM): 45.8 ± 1.20 | Cell Cycle Distribution G0/G1 ([5]; 10 μM): 46.7 ± 0.92 | Cell Cycle Distribution G2/M ([5]; 10 μM): 10.4 ± 0.07 | Cell Cycle Distribution S ([5]; 10 μM): 44.1 ± 0.57 | Cell Cycle Distribution G0/G1 ([5]; 25 μM): 39.8 ± 0.78 | Cell Cycle Distribution G2/M ([5]; 25 μM): 6.5 ± 0.07 | Cell Cycle Distribution S ([5]; 25 μM): 54.2 ± 0.28 | Cell Cycle Distribution G0/G1 ([5]; 50 μM): 43.1 ± 1.56 | Cell Cycle Distribution G2/M ([5]; 50 μM): 7.4 ± 0.42 | Cell Cycle Distribution S ([5]; 50 μM): 51.2 ± 1.06 | Cell Cycle Distribution G0/G1 ([5]; 100 μM): 46.8 ± 0.28 | Cell Cycle Distribution G2/M ([5]; 100 μM): 9.3 ± 0.42 | Cell Cycle Distribution S ([5]; 100 μM): 44.5 ± 0.14 | IC50 [6]: 63.63 ± 0.49 µM
